# Data as given in ChEMBL document CHEMBL1201862, “PubChem BioAssay data set” (2004).
# Values joined by “and” are separate entries in the source; they are usually repeats but may differ in a detail not shown here. Identical values can stand only once. Active and inactive are the calls of the source.
# Key:
# [1] = molecular target: T1, Heat shock factor protein 1 (Mus musculus, UniProt P38532); experiment: decrease of HSF1-responsive luciferase luminescence – cell-based, NIH3T3, dose retest, confirmation (AID 2382); assay type: functional;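 note: NIH3T3 fibroblasts with HSF1-driven luciferase reporter stressed by proteasome inhibitor MG132; luminescence from HSF1-driven luciferase expression after 8 hours of MG132 stress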
# T1 sequence (P38532 whole entry): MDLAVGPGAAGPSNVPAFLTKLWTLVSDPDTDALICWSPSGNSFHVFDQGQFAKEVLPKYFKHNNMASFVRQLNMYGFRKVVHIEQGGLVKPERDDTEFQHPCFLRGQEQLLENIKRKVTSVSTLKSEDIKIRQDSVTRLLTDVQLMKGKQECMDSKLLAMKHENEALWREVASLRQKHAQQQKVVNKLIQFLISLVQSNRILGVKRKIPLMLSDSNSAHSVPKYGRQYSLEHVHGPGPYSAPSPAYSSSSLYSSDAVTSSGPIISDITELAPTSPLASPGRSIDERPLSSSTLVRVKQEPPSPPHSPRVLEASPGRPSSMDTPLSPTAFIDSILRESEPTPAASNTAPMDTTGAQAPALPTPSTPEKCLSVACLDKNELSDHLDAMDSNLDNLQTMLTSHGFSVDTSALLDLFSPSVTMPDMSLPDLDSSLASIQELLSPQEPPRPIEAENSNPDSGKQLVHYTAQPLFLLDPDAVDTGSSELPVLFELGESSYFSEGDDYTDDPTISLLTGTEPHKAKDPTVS
# [2] = molecular target: Intestinal-type alkaline phosphatase (Homo sapiens, UniProt P09923); experiment: activation of human intestinal alkaline phosphatase – biochemical, dose response (AID 488873); assay type: functional
# Sequence of Intestinal-type alkaline phosphatase (Homo sapiens, UniProt P09923) (P09923 whole entry): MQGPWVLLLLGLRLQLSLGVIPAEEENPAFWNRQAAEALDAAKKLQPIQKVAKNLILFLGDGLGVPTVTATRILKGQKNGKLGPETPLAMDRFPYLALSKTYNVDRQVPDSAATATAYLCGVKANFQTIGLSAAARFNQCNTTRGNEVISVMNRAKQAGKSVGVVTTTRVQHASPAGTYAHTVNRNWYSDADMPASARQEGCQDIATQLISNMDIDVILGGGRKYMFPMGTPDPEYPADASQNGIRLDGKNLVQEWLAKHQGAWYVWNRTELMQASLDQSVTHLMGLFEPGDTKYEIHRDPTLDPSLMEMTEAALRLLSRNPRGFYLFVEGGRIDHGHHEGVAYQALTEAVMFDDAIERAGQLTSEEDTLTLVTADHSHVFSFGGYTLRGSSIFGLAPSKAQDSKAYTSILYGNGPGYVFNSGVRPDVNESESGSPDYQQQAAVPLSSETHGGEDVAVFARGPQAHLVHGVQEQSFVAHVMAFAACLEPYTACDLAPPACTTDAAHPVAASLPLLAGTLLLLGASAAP
# [3] = molecular target: T2, Intestinal-type alkaline phosphatase (Mus musculus, UniProt P24822); experiment: mouse intestinal alkaline phosphatase activators, dose response, biochemical, luminescence, uHTS hits (AID 488783); assay type: functional
# T2 sequence (P24822 whole entry): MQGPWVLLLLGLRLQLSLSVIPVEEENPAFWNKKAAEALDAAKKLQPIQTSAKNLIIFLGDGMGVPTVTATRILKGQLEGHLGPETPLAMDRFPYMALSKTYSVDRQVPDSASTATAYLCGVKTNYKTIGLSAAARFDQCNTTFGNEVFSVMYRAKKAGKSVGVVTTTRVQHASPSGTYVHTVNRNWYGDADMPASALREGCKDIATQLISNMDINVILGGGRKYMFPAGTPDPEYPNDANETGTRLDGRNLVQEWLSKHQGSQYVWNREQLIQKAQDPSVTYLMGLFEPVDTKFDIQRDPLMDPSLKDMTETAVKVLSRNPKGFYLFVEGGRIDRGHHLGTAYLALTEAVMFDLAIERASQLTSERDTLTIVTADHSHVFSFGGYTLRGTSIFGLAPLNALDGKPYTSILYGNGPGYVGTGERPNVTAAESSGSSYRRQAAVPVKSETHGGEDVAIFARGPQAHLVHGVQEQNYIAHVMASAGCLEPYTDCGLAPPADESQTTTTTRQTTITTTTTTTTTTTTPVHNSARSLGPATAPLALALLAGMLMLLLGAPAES
# [4] = molecular target: T3, Alkaline phosphatase, tissue-nonspecific isozyme (Homo sapiens, UniProt P05186); experiment: activation of tissue-nonspecific alkaline phosphatase – biochemical, TNAP isozyme, mouse IAP uHTS hits, selectivity assay for mouse IAP activator project, dose response (AID 488880); assay type: functional
# T3 sequence (P05186 whole entry): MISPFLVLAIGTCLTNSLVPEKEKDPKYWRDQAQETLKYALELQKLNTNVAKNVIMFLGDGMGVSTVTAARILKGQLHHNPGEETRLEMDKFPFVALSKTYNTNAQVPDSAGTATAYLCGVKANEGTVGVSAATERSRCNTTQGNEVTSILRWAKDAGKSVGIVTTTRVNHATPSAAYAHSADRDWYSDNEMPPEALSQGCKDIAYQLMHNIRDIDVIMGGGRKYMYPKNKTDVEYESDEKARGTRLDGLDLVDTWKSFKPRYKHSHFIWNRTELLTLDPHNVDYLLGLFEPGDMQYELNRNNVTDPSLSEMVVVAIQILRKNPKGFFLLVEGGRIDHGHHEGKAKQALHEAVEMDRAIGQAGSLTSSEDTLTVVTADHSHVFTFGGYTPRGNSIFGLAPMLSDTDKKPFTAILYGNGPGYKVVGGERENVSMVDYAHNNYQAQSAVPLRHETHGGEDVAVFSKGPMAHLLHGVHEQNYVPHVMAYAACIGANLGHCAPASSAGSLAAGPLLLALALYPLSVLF
# [5] = molecular target: T2, Intestinal-type alkaline phosphatase; experiment: PubChem AID 488785; assay type: functional
# [6] = molecular target: T3, Alkaline phosphatase, tissue-nonspecific isozyme; experiment: TNAP enzyme inhibition by screening hits, dose response, selectivity assay for mouse IAP inhibitor project, biochemical, human TNAP, uHTS hits (AID 488906); assay type: functional
# [7] = molecular target: T4, Streptokinase A (Streptococcus pyogenes serotype M1, UniProt P10520); experiment: viability-normalized secreted streptokinase activity reduction – plasminogen activation absorbance, OD405, dose response (AID 1914); assay type: functional, Streptococcus pyogenes M1 GAS;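 note: secreted streptokinase activity via plasminogen activation per viability signal from cell pellet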
# T4 sequence (P10520 whole entry): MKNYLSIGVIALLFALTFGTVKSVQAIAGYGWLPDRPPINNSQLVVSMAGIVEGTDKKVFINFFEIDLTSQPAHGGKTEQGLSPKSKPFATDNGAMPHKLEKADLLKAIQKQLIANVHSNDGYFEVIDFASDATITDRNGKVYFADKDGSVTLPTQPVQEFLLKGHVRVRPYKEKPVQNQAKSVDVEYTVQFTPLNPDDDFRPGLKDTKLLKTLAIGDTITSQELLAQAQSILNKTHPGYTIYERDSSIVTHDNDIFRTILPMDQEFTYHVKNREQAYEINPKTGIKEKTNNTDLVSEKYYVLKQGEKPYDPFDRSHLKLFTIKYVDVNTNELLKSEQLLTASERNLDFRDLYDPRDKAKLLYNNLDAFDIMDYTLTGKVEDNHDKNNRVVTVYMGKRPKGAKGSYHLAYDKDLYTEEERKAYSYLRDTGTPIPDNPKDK
# [8] = molecular target: T5, G-protein coupled receptor 35 (Homo sapiens, UniProt Q9HC97); experiment: SAR analysis of Agonists of the GPR35 Receptor using an Image-Based Assay - Set 4. [Related pubchem assays (depositor defined):AID2013, AID2026]; assay type: functional
# T5 sequence (Q9HC97 whole entry): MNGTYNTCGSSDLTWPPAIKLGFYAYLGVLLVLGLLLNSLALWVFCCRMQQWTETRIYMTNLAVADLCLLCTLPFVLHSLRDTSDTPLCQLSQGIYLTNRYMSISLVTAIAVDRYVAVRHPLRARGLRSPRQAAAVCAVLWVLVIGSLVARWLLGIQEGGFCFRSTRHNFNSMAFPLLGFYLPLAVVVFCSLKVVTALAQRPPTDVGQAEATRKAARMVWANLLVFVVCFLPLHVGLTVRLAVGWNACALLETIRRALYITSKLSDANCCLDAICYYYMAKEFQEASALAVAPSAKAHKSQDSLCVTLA
# [9] = molecular target: T6, Cannabinoid receptor 1 (Homo sapiens, UniProt P21554); experiment: SAR analysis of agonists of the Cannabinoid Receptor 1 using an Image-Based Assay - Set 4. [Related pubchem assays (depositor defined):AID2013, AID2026]; assay type: functional
# T6 sequence (P21554 whole entry): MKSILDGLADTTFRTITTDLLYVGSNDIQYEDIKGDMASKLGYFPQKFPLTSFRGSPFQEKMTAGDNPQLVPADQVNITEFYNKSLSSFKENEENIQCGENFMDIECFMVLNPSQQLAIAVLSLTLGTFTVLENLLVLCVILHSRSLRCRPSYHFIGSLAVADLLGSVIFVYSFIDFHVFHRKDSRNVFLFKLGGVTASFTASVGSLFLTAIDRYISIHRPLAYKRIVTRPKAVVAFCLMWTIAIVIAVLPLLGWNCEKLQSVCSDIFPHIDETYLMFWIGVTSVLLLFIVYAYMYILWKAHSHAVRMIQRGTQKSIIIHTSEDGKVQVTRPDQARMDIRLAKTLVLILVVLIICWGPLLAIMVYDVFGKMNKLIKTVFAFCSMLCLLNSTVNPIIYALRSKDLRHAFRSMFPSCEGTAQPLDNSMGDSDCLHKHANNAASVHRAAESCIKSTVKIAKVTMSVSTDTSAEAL
# [10] = molecular target: T5, G-protein coupled receptor 35; experiment: SAR analysis of Antagonists of the GPR35 Receptor using an Image-Based Assay - Set 6. [Related pubchem assays (depositor defined):AID2013, AID2026]; assay type: functional
# [11] = molecular target: T6, Cannabinoid receptor 1; experiment: SAR analysis of antagonists of the Cannabinoid Receptor 1 using an Image-Based Assay - Set 4. [Related pubchem assays (depositor defined):AID2013, AID2026]; assay type: functional
# [12] = molecular target: G-protein coupled receptor 55 (Homo sapiens, UniProt Q9Y2T6); experiment: SAR Analysis of Selective Antagonists of GPR55 using an Image-Based Assay - Set 4. [Related pubchem assays (depositor defined):AID2013, AID2026]; assay type: functional;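 note: antagonism of response to 5 µM lysophosphatidylinositol agonist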
# Sequence of G-protein coupled receptor 55 (Q9Y2T6 whole entry): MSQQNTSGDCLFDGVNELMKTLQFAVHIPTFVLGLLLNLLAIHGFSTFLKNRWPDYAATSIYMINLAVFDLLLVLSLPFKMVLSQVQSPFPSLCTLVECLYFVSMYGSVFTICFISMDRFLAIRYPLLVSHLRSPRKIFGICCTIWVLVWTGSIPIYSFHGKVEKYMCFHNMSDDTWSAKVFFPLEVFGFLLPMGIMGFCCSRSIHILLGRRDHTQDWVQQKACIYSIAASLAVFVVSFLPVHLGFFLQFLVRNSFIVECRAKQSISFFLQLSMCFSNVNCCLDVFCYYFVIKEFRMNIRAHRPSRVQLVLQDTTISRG
# [13] = molecular target: T7, Cannabinoid receptor 2 (Homo sapiens, UniProt P34972); experiment: SAR analysis of antagonists of the Cannabinoid Receptor 2 using an Image-Based Assay - Set 3. [Related pubchem assays (depositor defined):AID2013, AID2026]; assay type: functional
# T7 sequence (P34972 whole entry): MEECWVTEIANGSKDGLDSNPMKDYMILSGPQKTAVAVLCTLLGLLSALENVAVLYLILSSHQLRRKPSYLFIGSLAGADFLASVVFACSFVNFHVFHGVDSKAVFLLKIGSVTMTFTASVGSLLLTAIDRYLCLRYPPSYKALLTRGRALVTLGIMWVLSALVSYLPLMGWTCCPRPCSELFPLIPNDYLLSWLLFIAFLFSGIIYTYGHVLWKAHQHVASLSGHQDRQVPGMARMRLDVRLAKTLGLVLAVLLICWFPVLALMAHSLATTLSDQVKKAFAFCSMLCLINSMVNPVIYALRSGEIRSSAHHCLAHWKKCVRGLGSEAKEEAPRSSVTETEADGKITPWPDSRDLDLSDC
# [14] = molecular target: T7, Cannabinoid receptor 2; experiment: SAR analysis of agonists of the Cannabinoid Receptor 2 using an Image-Based Assay - Set 3. [Related pubchem assays (depositor defined):AID2013, AID2026]; assay type: functional
# [15] = molecular target: Cytochrome P450 2D6 (Homo sapiens, UniProt P10635);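 note: CYP2D6 member of a cytochrome P450 panel assay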
# Sequence of Cytochrome P450 2D6 (P10635 whole entry): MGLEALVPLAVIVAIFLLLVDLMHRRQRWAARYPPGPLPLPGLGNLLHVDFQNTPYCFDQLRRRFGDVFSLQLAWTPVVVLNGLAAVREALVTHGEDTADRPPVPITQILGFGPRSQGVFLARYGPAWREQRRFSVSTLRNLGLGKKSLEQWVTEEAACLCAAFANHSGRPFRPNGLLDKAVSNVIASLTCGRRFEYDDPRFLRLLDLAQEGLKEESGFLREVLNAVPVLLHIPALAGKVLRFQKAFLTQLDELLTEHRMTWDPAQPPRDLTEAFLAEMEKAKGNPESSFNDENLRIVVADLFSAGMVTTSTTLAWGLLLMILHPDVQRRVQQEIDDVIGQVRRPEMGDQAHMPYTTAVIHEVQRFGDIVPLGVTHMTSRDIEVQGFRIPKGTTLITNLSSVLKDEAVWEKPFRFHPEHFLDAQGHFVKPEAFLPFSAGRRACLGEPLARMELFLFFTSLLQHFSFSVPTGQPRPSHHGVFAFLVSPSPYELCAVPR
# [16] = molecular target: Induced myeloid leukemia cell differentiation protein Mcl-1 (Homo sapiens, UniProt Q07820); experiment: blockers of MCL1 binding to BIM peptide – biochemical, fluorescence polarization, BIM-BH3 peptide, 1536-well, dose response (AID 2217)
# Sequence of Induced myeloid leukemia cell differentiation protein Mcl-1 (Q07820 whole entry): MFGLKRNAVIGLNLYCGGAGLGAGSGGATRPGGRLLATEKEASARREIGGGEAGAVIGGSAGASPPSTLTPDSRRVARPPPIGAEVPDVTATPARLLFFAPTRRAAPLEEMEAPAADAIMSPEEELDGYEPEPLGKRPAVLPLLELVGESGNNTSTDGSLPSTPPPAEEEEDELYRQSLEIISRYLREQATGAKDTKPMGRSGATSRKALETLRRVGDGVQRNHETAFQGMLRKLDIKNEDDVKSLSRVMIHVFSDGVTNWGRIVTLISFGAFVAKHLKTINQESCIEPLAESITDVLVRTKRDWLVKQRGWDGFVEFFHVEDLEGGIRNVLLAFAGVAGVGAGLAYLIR
# [17] = molecular target: Bcl-2-like protein 1 (Homo sapiens, UniProt Q07817); experiment: blockers of BCLXL peptide binding – biochemical, fluorescence polarization, 1536-well, selectivity assay for MCL1 inhibitor project, dose response (AID 2218)
# Sequence of Bcl-2-like protein 1 (Q07817 whole entry): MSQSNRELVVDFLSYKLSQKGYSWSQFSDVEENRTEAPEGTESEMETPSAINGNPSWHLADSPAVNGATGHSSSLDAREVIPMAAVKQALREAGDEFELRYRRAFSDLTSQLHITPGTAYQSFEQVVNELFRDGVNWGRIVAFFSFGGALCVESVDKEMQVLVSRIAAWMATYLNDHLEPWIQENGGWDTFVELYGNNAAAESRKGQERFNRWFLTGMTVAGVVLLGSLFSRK
# [18] = molecular target: Peroxisome proliferator-activated receptor gamma (Homo sapiens, UniProt P37231); experiment: PPARg transcriptional activation, reporter cells – cell-based, luminescence, assay provider, dose response (AID 504447); assay type: functional
# Sequence of Peroxisome proliferator-activated receptor gamma (P37231 whole entry): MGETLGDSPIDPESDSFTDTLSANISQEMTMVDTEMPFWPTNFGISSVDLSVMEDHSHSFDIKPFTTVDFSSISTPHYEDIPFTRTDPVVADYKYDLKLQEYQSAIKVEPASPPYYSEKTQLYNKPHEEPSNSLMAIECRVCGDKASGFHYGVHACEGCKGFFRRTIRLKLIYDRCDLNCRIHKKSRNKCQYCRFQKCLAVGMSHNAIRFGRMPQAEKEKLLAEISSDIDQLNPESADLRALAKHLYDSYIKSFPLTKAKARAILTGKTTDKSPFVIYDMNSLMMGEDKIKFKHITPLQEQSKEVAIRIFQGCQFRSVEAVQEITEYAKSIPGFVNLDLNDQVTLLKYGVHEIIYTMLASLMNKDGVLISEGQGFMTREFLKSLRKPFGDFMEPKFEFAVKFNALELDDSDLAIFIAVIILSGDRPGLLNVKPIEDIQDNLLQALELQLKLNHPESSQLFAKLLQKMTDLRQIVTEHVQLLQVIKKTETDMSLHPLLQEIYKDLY
# [19] = molecular target: T8, Small ubiquitin-related modifier 1 (Homo sapiens, UniProt P63165); experiment: SUMO1 protein interaction blockers, potency – biochemical, fluorescence polarization, uHTS hits, dose response (AID 624382); assay type: functional; settings: read-out: IC50_Mean
# T8 sequence (P63165 whole entry): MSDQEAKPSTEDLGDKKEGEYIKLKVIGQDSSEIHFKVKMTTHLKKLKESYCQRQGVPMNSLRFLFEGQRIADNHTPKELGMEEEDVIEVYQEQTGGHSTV
# [20] = molecular target: T9, Probable nicotinate-nucleotide adenylyltransferase (Staphylococcus aureus (strain N315), UniProt P65502); assay type: functional, Staphylococcus aureus subsp. aureus N315;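 for IC50 Mean: confirmatory dose-response retesting of NadD inhibitor hits first found in an ultra-high-throughput screen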
# T9 sequence (P65502 whole entry): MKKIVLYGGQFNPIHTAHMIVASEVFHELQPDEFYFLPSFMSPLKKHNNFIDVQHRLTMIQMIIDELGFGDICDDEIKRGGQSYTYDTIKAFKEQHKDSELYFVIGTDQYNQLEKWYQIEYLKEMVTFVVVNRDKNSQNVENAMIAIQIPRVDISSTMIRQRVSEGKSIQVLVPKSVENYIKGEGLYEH
# [21] = molecular target: T9, Probable nicotinate-nucleotide adenylyltransferase; assay type: functional, Staphylococcus aureus subsp. aureus N315; settings: read-out: IC50_Mean
# [22] = molecular target: T8, Small ubiquitin-related modifier 1; experiment: SUMO1 protein-protein binding blockers, potency – biochemical, FRET, dose response (AID 624383); assay type: functional; settings: read-out: IC50_Mean
# [23] = viability loss in HeLa cells – cytotoxicity control for MgcRacGAP inhibitor project, dose response (AID 624300); assay type: functional
# [24] = molecular target: T10, Rac GTPase-activating protein 1 (Homo sapiens, UniProt Q9H0H5); experiment: blockers of MgcRacGAP-driven Rac1 GTP hydrolysis – biochemical, ADP Hunter fluorescence, primary and confirmatory, confirmation (AID 624330); assay type: functional
# T10 sequence (Q9H0H5 whole entry): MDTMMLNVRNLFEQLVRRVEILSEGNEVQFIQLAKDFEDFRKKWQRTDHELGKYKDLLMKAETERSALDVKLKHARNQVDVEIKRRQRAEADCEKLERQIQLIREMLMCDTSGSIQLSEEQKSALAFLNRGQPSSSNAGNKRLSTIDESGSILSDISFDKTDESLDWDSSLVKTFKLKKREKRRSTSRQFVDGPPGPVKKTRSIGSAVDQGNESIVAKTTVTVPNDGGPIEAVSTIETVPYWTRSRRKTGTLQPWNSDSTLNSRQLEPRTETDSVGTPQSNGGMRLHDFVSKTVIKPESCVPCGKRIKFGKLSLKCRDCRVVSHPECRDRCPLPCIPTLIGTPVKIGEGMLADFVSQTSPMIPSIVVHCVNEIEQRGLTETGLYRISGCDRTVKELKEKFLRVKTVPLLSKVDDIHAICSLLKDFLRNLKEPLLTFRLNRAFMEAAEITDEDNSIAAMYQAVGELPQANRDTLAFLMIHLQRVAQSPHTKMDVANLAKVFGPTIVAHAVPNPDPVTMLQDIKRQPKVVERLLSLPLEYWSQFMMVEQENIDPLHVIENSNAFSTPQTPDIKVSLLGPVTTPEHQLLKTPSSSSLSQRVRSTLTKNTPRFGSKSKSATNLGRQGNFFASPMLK
# [25] = molecular target: Tyrosine-protein phosphatase non-receptor type 7 (Homo sapiens, UniProt P35236); assay type: functional
# Sequence of Tyrosine-protein phosphatase non-receptor type 7 (P35236 whole entry): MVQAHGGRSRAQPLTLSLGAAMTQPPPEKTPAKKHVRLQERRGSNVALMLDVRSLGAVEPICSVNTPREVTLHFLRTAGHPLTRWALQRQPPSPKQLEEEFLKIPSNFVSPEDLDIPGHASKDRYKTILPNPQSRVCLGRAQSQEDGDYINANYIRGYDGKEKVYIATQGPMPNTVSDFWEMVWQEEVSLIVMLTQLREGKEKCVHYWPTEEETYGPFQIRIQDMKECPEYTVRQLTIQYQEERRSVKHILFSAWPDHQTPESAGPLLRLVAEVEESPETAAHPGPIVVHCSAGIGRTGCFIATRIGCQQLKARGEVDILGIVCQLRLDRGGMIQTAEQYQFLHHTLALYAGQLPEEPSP
# [26] = molecular target: T11, Tyrosine-protein phosphatase non-receptor type 22 (Homo sapiens, UniProt Q9Y2R2); assay type: functional
# T11 sequence (Q9Y2R2 whole entry): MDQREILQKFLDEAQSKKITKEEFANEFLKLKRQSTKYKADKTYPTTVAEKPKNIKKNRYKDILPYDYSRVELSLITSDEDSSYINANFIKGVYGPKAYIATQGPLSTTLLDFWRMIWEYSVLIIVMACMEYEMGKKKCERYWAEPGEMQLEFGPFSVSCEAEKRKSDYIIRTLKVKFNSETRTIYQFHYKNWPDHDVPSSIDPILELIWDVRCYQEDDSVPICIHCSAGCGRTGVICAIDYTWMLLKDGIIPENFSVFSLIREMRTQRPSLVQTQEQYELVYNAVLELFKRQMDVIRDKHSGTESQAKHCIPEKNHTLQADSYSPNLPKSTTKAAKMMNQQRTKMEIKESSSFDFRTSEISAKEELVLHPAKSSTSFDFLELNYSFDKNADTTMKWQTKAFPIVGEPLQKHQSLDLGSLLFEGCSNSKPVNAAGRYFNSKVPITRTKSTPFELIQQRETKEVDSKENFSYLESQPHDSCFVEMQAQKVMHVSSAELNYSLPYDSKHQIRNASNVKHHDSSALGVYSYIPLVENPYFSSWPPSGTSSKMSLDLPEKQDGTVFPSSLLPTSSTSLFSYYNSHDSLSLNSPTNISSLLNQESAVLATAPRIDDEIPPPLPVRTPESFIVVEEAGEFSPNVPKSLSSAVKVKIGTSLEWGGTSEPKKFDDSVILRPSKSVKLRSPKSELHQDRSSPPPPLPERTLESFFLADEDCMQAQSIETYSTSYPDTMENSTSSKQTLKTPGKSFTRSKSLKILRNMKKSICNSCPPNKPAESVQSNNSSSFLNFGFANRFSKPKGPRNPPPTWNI
# [27] = molecular target: T11, Tyrosine-protein phosphatase non-receptor type 22; assay type: functional; remark: listed apart in the source
smiles,measurement,setting,value
COc1cc(OC)c(NC(=O)CN(C)S(=O)(=O)c2ccc3nc(O)oc3c2)cc1Cl,EC50,[1],> 195 µM (not active)
same,EC50,[2],68.4 µM (active)
same,EC50,[3],51.5 µM (active)
same,EC50,[4],70.7 µM (active)
COc1ccc(OC)c(NC(=O)CCNS(=O)(=O)c2ccc3[nH]c(=O)oc3c2)c1,EC50,[2],> 100 µM (inactive)
same,IC50,[5],2.49 µM (active)
same,IC50,[6],> 100 µM (inactive)
COc1ccc(-c2n[nH]c(C)c2-c2ccc(Cl)cc2)c(O)c1,EC50,[7],9.86 µM (active)
same,EC50,[8],> 32 µM (inactive)
same,EC50,[9],> 32 µM (inactive)
same,IC50,[10],> 32 µM (inactive)
same,IC50,[11],548 nM (active) and 607 nM (active)
same,IC50,[12],10.9 µM (inactive) and 13.4 µM (inactive)
same,IC50,[13],5.22 µM (active) and 4.83 µM (active)
same,EC50,[14],4.81 µM (active) and 5.4 µM (active)
same,AC50,[15],28.2 µM (inconclusive)
O=C(C1=C(O)C(=O)N(c2nc3ccc(Cl)cc3s2)C1c1ccco1)c1ccco1 (stereo not drawn),IC50,[16],28.8 µM (not active)
same,IC50,[17],> 109 µM (not active)
same,EC50,[18],0.7 µM (active)
same,IC50,[19],> 66.6 µM (inactive)
same,IC50,[20],13.8 µM (active)
same,IC50,[21],56.8 µM (active)
same,IC50,[22],8.8 µM (active)
same,CC50,[23],100 µM (active)
same,IC50,[24],118 µM (active)
C=CCN(CC=C)C(=S)NC(=O)/C=C/c1ccc(C)cc1,IC50,[25],> 79.4 µM (inactive)
same,IC50,[26],> 79.4 µM (inactive)
same,IC50,[27],> 79.4 µM (inactive)
